# Data: patent publication US20260297042A1, “BIARYLAMIDE DERIVATIVES AND THEIR USE AS PKMYT1 INHIBITORS” (CANCER RESEARCH TECHNOLOGY LIMITED, priority 2023, published 2026)
# Legend:
# [1] = target: T1, Cellular PKMYT1 Biomarker CDK1 pT14 (Homo sapiens, UniProt Q99640); experiment: Inhibition of cellular PKMYT1 biomarker CDK1 pT14 in OVCAR 3 cells (immunoblot); type: cell-based; settings: 20 hours incubation
# T1 construct: read-out CDK1 phospho-T14 immunoblot
# T1 sequence (Q99640 1-499): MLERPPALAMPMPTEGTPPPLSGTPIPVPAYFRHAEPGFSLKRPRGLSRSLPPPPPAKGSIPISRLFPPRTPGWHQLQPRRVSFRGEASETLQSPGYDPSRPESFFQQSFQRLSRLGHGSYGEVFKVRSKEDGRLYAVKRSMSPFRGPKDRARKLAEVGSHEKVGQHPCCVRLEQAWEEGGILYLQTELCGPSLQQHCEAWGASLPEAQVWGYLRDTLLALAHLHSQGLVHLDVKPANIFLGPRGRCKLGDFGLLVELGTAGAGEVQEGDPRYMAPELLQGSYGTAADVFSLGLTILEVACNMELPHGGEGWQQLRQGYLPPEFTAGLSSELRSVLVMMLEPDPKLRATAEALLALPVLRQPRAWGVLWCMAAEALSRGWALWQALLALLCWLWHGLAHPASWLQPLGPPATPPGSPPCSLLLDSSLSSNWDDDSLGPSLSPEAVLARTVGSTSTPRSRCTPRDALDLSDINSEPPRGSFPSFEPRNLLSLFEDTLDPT
# In short: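 Confluent OVCAR 3 cells treated with a compound concentration range for 20 h at 37 °C. Lysates analysed by automated capillary immunoblot for CDK1 phospho-T14, with vinculin, fluorescence detection; IC50 by regression.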
# WEE1 = target: T2, WEE1 (Homo sapiens, UniProt P30291); experiment: Selectivity versus WEE1 assay (ADP-Glo enzymatic assay); type: biochemical; settings: for IC50: ADP-Glo; for PKMYT1 vs. WEE1 selectivity: fold difference in selectivity for PKMYT1 over WEE1
# T2 construct: purchased Thermo Fisher PR7373A
# In short: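 ADP-Glo luminescence read-out after a 60 min reaction at 26° C, initiated by 30 µM ATP, with 15 nM enzyme in HEPES pH 7.5/MgCl2/EGTA/Brij-35 buffer containing 1% DMSO. Replicate IC50 values had to agree within 3-fold and fits needed r2 >0.9.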
# OVCAR 3 cells = experiment: Cancer cell line proliferation assay, ATP-based cell viability (Cell Titre Glow), OVCAR 3 (CCNE1-amplified); settings: KYSE30 (normal CCNE1) GI50 vs. OVCAR 3 (CCNE1-amplified) GI50
# In short: (§1)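 CellTiter-Glo luminescence endpoint; PKMYT1 inhibitor exposure; GI50 = conc. for 50% growth inhibition, curve-fitted.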
# Human PKMYT1 = target: T3, Human PKMYT1 (Homo sapiens, UniProt Q99640); experiment: PKMYT1 biochemical ADP-Glo enzymatic assay; settings: ADP-Glo
# T3 construct: Human PKMYT1 75-362 was cloned as a TEV cleavable 6xHis fusion; 6xHis (TEV cleavable) (cleaved yes); made in house; host or cells: bacterial cells
# T3 sequence (Q99640 75-362): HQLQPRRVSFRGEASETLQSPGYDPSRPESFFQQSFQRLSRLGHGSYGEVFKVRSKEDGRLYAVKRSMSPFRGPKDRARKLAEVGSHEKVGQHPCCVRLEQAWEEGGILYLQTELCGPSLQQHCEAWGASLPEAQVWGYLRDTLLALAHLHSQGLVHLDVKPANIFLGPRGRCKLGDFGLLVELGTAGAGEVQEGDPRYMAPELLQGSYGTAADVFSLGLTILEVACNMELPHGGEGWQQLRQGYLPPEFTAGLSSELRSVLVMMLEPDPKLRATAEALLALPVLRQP
# In short: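 Luminescent ADP-Glo Max read-out of ADP produced by 15 nM PKMYT1 (residues 75-362, bacterial, His-tag removed) from 500 µM ATP without peptide substrate. Reaction: 50 mM HEPES pH 7.5, 10 mM MgCl2, 1 mM EGTA, 0.01% Brij-35, 60 min, 26 °C. IC50 values fitted from 10-point curves.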
# KYSE-30 cells = experiment: Cancer cell line proliferation assay, ATP-based cell viability (Cell Titre Glow), KYSE-30 (normal CCNE1); settings: Homo sapiens, KYSE-30 cells (normal CCNE1), concentration that achieves 50% cell growth proliferation inhibition, read-out: KYSE30 Gl50
# In short: as §1
# [2] = 15 nM WEE1, 60 minutes at 26° C., banded
# [3] = banded, ">N" = at least in this band but could be higher
# [4] = 15 nM PKMYT1 kinase domain, 500 µM ATP, 60 minutes at 26° C., banded
# [5] = PKMYT1 kinase domain 15 nM, banded values
# T2 sequence (P30291 whole entry): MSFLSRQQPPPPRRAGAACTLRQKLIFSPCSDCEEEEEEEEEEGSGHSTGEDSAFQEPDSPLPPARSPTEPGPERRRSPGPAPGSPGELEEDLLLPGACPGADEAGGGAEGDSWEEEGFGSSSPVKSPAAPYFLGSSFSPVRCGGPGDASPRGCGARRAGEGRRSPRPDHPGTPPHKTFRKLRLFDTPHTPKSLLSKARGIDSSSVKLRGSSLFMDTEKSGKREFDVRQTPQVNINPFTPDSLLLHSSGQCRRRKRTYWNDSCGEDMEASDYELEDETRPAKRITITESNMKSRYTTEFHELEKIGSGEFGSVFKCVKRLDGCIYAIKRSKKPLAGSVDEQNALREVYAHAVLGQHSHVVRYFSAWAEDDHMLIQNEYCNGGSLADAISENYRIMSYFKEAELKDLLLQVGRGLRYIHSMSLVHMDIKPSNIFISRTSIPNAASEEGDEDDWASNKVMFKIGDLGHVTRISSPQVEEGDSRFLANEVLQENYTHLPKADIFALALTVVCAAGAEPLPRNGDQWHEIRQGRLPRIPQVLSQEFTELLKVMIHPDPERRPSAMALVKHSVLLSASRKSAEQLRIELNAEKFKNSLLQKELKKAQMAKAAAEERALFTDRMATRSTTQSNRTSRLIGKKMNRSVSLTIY
Structure (SMILES),IC50 [1] [nM],IC50 (WEE1; [2]) [nM],PKMYT1 vs. WEE1 selectivity (WEE1; [3]),Selectivity ratio KYSE30 Gl50 vs. OVCAR3 Gl50 (OVCAR 3 cells),IC50 (Human PKMYT1; [4]) [nM],GI50 (KYSE-30 cells) [nM],"IC50 (WEE1; WEE1 15 nM, banded values) [nM]",PKMYT1 vs. WEE1 selectivity (WEE1; banded),IC50 (Human PKMYT1; [5]) [nM]
"Cc1ccc(O)c(C)c1NC(=O)c1cnc(Nc2nc(NC(=O)C(C)(C)C)ccc2Cl)s1.Cl [BAA-333, 2-((3-chloro-6-pivalamidopyridin-2-yl)amino)-N-(3-hydroxy-2,6-dimethylphenyl)thiazole-5-carboxamide hydrochloride]",< 100,> 11000,Y (1000-5000 fold),Y (>20 fold),50 to 1000,> 5000,,,
"Cc1ccc(O)c(C)c1NC(=O)c1cnc(Nc2cccc(N3CCN(CCO)CC3)n2)s1 [BAA-432, N-(3-hydroxy-2,6-dimethylphenyl)-2-((6-(4-(2-hydroxyethyl)piperazin-1-yl)pyridin-2-yl)amino)thiazole-5-carboxamide]",< 100,,,Y (>20 fold),,> 5000,1000 to 11000,X (100-<1000 fold),< 50
"Cc1ccc(O)c(C)c1NC(=O)c1cnc(Nc2cccc(N3CCC(NC(=O)OC(C)(C)C)CC3)n2)s1 [BAA-327, tert-butyl(1-(6-((5-((3-hydroxy-2,6-dimethylphenyl)carbamoyl)thiazol-2-yl)amino)pyridin-2-yl)piperidin-4-yl)carbamate]",100 to 1000,> 11000,X (100-<1000 fold),Y (>20 fold),50 to 1000,500 to 5000,,,
"Cc1ccc(O)c(C)c1NC(=O)c1cnc(Nc2cccc(N(C)C(=O)c3c(F)cc(F)cc3F)n2)s1 [BAA-325, N-(3-hydroxy-2,6-dimethylphenyl)-2-((6-(2,4,6-trifluoro-N-methylbenzamido)pyridin-2-yl)amino)thiazole-5-carboxamide]",< 100,> 11000,Y (1000-5000 fold),X (3-20 fold),50 to 1000,> 5000,,,
"Cc1ccnc(Nc2ncc(C(=O)Nc3c(C)ccc(O)c3C)s2)c1 [BAA-422, N-(3-hydroxy-2,6-dimethylphenyl)-2-((4-methylpyridin-2-yl)amino)thiazole-5-carboxamide]",< 100,,,Y (>20 fold),,500 to 5000,1000 to 11000,X (100-<1000 fold),< 50
"Cc1ccc(O)c(C)c1NC(=O)c1cnc(Nc2nc(N3CCN(C)CC3)ccc2Cl)s1 [BAA-414, 2-((3-chloro-6-(4-methylpiperazin-1-yl)pyridin-2-yl)amino)-N-(3-hydroxy-2,6-dimethylphenyl)thiazole-5-carboxamide]",< 100,,,Y (>20 fold),,500 to 5000,1000 to 11000,X (100-<1000 fold),< 50
"Cc1ccc(O)c(C)c1NC(=O)c1cnc(Nc2cccc(N3CCN(C)CC3)n2)s1 [BAA-423, N-(3-hydroxy-2,6-dimethylphenyl)-2-((6-(4-methylpiperazin-1-yl)pyridin-2-yl)amino)thiazole-5-carboxamide]",< 100,,,Y (>20 fold),,500 to 5000,1000 to 11000,W (10-<100 fold),< 50
"Cc1cn(C(CO)C(=O)N2CCCC2C(F)(F)F)nc1Nc1ncc(C(=O)Nc2c(C)ccc(O)c2C)s1 (stereo not drawn) [BAA-578, 2-((1-(3-hydroxy-1-oxo-1-(2-(trifluoromethyl)pyrrolidin-1-yl)propan-2-yl)-4-methyl-1H-pyrazol-3-yl)amino)-N-(3-hydroxy-2,6-dimethylphenyl)thiazole-5-carboxamide]",< 100,,,Y (>20 fold),,> 5000,1000 to 11000,X (100-<1000 fold),< 50
"Cc1cnccc1-n1cc(C)c(Nc2ncc(C(=O)Nc3c(C)ccc(O)c3C)s2)n1 [BAA-384, N-(3-hydroxy-2,6-dimethylphenyl)-2-((4-methyl-1-(3-methylpyridin-4-yl)-1H-pyrazol-3-yl)amino)thiazole-5-carboxamide]",< 100,1000 to 11000,X (100-<1000 fold),Y (>20 fold),< 50,500 to 5000,,,
Cc1cn(CC2CCOC2)nc1Nc1ncc(C(=O)Nc2c(C)ccc(O)c2C)s1 (stereo not drawn) [BAA-543],< 100,,,Y (>20 fold),,> 5000,1000 to 11000,W (10-<100 fold),< 50
"Cc1ccc(O)c(C)c1NC(=O)c1cnc(Nc2cc(N3CCOCC3)ccn2)s1 [BAA-402, N-(3-hydroxy-2,6-dimethylphenyl)-2-((4-morpholinopyridin-2-yl)amino)thiazole-5-carboxamide]",< 100,,,Y (>20 fold),,500 to 5000,50 to 1000,W (10-<100 fold),< 50
"Cc1cccc(Nc2ncc(C(=O)Nc3c(C)ccc(O)c3C)s2)n1 [BAA-407, N-(3-hydroxy-2,6-dimethylphenyl)-2-((6-methylpyridin-2-yl)amino)thiazole-5-carboxamide]",< 100,,,Y (>20 fold),,> 5000,1000 to 11000,X (100-<1000 fold),< 50
"Cc1cn(CC(=O)N2CCCC2C(F)(F)F)nc1Nc1ncc(C(=O)Nc2c(C)ccc(O)c2C)s1 (stereo not drawn) [BAA-493, N-(3-hydroxy-2,6-dimethylphenyl)-2-((4-methyl-1-(2-oxo-2-(2-(trifluoromethyl)pyrrolidin-1-yl)ethyl)-1H-pyrazol-3-yl)amino)thiazole-5-carboxamide]",< 100,,,Y (>20 fold),,> 5000,1000 to 11000,X (100-<1000 fold),< 50
